Experimental data reported in US4379788A, “2-Phenyl-pyrimidones” (Dr. Karl Thomae Gesellschaft mit beschrankter Haftung, priority 1980, dated 1983).

Legend:
Format in all cases: in vivo
blood circulation = test: Effect on blood circulation in anesthetized dogs (i.v.); set-up: Duration: unit not given here; conditions: for Effect on average arterial blood pressure (first figure of the pair): figure before the slash; for Decrease in contractility dp/dt max: left ventricle
Experimental: The blood circulation tests were carried out on dogs with a body weight of 18-29 kg under chloraloseurethane-nembutal anesthesia (54+270+10 mg/kg i.v.). After opening the thorax in the 4th left intercostal space the animals were ventilated with room air by means of a Harvard respirator. The arterial blood pressure was measured in the arteria carotis by a Statham pressure transducer; the heart rate was measured electronically from the sequence of the R-peaks of the electrocardiogram. The maximum rate of pressure increase ([…]) in the left ventricula was measured by means of a Konigsberg pressure received and a Grass differential amplifier. All parameters were recorded by means of a direct-writer. For anticoagulation the animals were injected i.v. with a solution of 10 mg/kg of sodium polyethylenesulfonate in 20% polydiol. The test compounds were administered intravenously to groups of 3 to 4 dogs.

[1] = Determination of acute toxicity in mice after intravenous administration; conditions: mouse, in vivo, iv, observation period 14 days
Experimental: (§1) The acute toxicity of the test compound was determined in mice (observationperiod: 14 days) after intravenous administration.

mice = test: as above; conditions: 35 mg/kg i.v., observation period 14 days
Experimental: as §1

SMILES | Decrease in heart rate (blood circulation; 1.0 mg/kg i.v.) [min⁻¹] | Duration (blood circulation; 1.0 mg/kg i.v.) | Effect on average arterial blood pressure (first figure of the pair) (blood circulation; 1.0 mg/kg i.v.) | Decrease in contractility dp/dt max (blood circulation; 1.0 mg/kg i.v.) | LD50 at 336 h [1] [mg/kg] | Acute toxicity: animals died (mice) | Decrease in heart rate (blood circulation; 0.5 mg/kg i.v.) [min⁻¹] | Duration (blood circulation; 0.5 mg/kg i.v.) | Effect on average arterial blood pressure (second figure of the pair) (blood circulation; 0.5 mg/kg i.v., figure after the slash) [mm Hg] | Effect on average arterial blood pressure (first figure of the pair) (blood circulation; 0.5 mg/kg i.v.) [mm Hg] | Decrease in contractility dp/dt max (blood circulation; 0.5 mg/kg i.v.)
COc1ccc2nc(-c3ccc(OCC(O)CNC(C)C)cc3)n(C)c(=O)c2c1 (centres unmarked) [D, 2-[4-(2-Hydroxy-3-isopropylamino-propoxy)-phenyl]-3-methyl-6-methoxy-3,4-dihydro-quinazolin-4-one] | -30 | > 40 | -5 mm Hg | -27 |  |  |  |  |  |  | 
COc1ccc2nc(-c3ccc(OCC(O)CN(C)CCc4ccc(OC)c(OC)c4)cc3)n(C)c(=O)c2c1.Cl.Cl (centres unmarked) [B, 2-{4-[2-Hydroxy-3-(2-(3,4-dimethoxy-phenyl)-N-methylethylamino)-propoxy]-phenyl}-3-methyl-6-methoxy-3,4-dihydro-quinazolin-4-one dihydrochloride] | -28 | 45 | -16 mm Hg | -17 | > 35 | 0 out of 5 |  |  |  |  | 
COc1cc2nc(-c3ccc(OCC(O)CNCCOc4ccccc4C)cc3)n(C)c(=O)c2cc1OC (centres unmarked) [E, 2-{4-[2-Hydroxy-3-(2-(2-methyl-phenoxy)-ethylamino)-propoxy]-phenyl}-3-methyl-6,7-dimethoxy-3,4-dihydroquinazolin-4-one] | -11 | > 36 | -13 mm Hg | -14 | > 35 | 0 out of 5 |  |  |  |  | 
COc1ccc2nc(-c3ccc(OCC(O)CNC(C)(C)C)cc3)n(C)c(=O)c2c1 (centres unmarked) [Compound A, 2-[4-(2-Hydroxy-3-tert.butylamino-propoxy)-phenyl]-3-methyl-6-methoxy-3,4-dihydro-quinazolin-4-one] |  |  |  |  | > 35 | 0 out of 5 | -21 | > 55 | -8 | -20 | -33
COc1ccc2nc(-c3ccc(OCC(O)CNCCc4ccccc4OC)cc3)n(C)c(=O)c2c1.Cl.Cl (centres unmarked) [C, 2-{4-[2-Hydroxy-3-(2-(2-methoxy-phenyl)-ethylamino)-propoxy]-phenyl}-3-methyl-6-methoxy-3,4-dihydroquinazolin-4-one dihydrochloride] | -22 | > 36 | +1 mm Hg | -14 | > 35 | 0 out of 5 |  |  |  |  | 
COc1cccc2c(=O)n(C)c(-c3ccc(OCCCNCC(O)COc4cccc(C)c4)cc3)nc12 (centres unmarked) [F, 2-{4-[3-(2-Hydroxy-3-(3-methyl-phenoxy)-propylamino)-propoxy]-phenyl}-3-methyl-8-methoxy-3,4-dihydroquinazolin-4-one] | -23 | > 63 | -11 mm Hg | -23 | > 35 | 0 out of 5 |  |  |  |  | 
